The results in this text go back to patent publication US12383699B2, “Catheter attachment made of plastic that contains molecularly dispersed polychlorinated phenoxyphenol (PCPP)” (priority 2017, dated 2025).

SMILES strings stand for the structures.

The series concerns fibroblasts. Description: fibroblast cytotoxicity test (MTT). The series is classed as cell-based. From the text: In FIG. 3, the following meanings apply: Mic: miconazole, Tri: trimetoprim, Rif: rifampicin, Irg: Irgasan, Gen: gentamicin, Fus: fusidic acid, Oct: octenidine, Ben: benzylpenicillin, Chl: chlorohexidine, Cli: clindamycine.

As to `Oc1cc(Cl)ccc1Oc1ccc(Cl)cc1Cl` [Irgasan, 5-chloro-2-(2,4-dichlorophenoxy)phenol], where the note is “FIG. 3, MTT”, the “maximum concentration up to which fibroblasts are hardly inhibited and the substance is non-toxic” value was not above 10 µg/mL. Moreover, where the note is “Irgasan release (cm^2) of 2-4 mg/I, release rates for inhibition zones of about 20 mm”, the “adverse affection in fibroblast-cytotoxicity test” value was “only a minimum adverse affection”.
